{"source": "paper PMC4575908", "about": "(Chemistry & biology, 2015)", "key": {"[1]": {"test_system": "CPT-11-induced diarrhea in mice", "conditions": "CPT-11 50 mg/kg i.p. without inhibitor"}, "patients": {"test_system": "patients", "conditions": "cited from earlier work"}}, "note": "Values joined by “and” are separate entries in the source; they are usually repeats but may differ in a detail not shown here. Equal values may be shown once. Read-outs that look alike come from different tables or passages of the source."}
{"smiles": "CCc1c2c(nc3ccc(OC(=O)N4CCC(N5CCCCC5)CC4)cc13)-c1cc3c(c(=O)n1C2)COC(=O)[C@]3(O)CC", "note": "[CPT-11, Irinotecan]", "values": [{"measurement": "mice with bloody diarrhea", "setting": "[1]; day 8, 50 mg/kg", "value": "~ 25% and 25%"}, {"measurement": "mice with bloody diarrhea", "setting": "[1]; day 9, 50 mg/kg", "value": "~ 60% and 60%"}, {"measurement": "mice with bloody diarrhea", "setting": "[1]; day 10", "value": 100, "unit": "%"}, {"measurement": "patients showing grade 3–4 diarrhea", "setting": "patients; human, in vivo", "value": 31, "unit": "%"}, {"measurement": "patients experiencing diarrhea", "setting": "patients; ref Food and Drug Administration package insert for irinotecan", "value": "up to 88%"}]}
